Columns and labels:
CDK9 = target: T1, CDK9 (Homo sapiens, UniProt P50750); experiment: CDK protein degradation activity (Western blotting), CDK9; format: cell-based; settings: MDA-MB-231 cells, 16 hours, Western blot
T1 construct: endogenous in cells; host or cells: MDA-MB-231
Summary of the method: (§1)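 MDA-MB-231; cmpd 100 nM / 1 μM / 10 μM final vs DMSO, 16 h. Triton X-100 lysates (pH 7.5, phosphatase/protease inhibitors) → SDS-PAGE → Western blot, anti-CDK2, anti-CDK9, tubulin loading control; densitometry.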

CDK2 = target: T2, CDK2 (Homo sapiens, UniProt P24941); experiment: CDK protein degradation activity (Western blotting), CDK2; format: cell-based; settings: MDA-MB-231 cells, 16 hours, Western blot
T2 construct: endogenous in cells; host or cells: MDA-MB-231
Summary of the method: as §1

T1 sequence (P50750 whole entry): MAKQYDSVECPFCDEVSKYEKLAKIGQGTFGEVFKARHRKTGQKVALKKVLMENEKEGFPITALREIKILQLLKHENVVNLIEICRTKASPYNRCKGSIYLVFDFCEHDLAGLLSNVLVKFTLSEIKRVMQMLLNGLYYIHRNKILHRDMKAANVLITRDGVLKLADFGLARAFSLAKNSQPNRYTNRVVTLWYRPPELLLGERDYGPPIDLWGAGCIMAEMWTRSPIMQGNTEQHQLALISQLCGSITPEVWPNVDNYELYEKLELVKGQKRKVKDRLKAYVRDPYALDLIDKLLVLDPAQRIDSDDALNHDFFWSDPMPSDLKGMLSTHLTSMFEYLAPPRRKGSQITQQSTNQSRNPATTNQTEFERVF

| Enzyme degradation CDK9 (% remaining) @ 0.1 μM (CDK9) | Enzyme degradation CDK9 (% remaining) @ 1 μM (CDK9) | Enzyme degradation CDK9 (% remaining) @ 10 μM (CDK9) | Enzyme degradation CDK2 (% remaining) @ 0.1 μM (CDK2) | Enzyme degradation CDK2 (% remaining) @ 1 μM (CDK2) | Enzyme degradation CDK2 (% remaining) @ 10 μM (CDK2) | Structure (SMILES) |
| --- | --- | --- | --- | --- | --- | --- |
| 0/0/0% | 0/0/0% | 0/0/0% | 70% | 70% | 50% | O=C1CC[C@H](N2C(=O)c3cccc(NCC(=O)N4CCC(CN5CCC(CNc6ncnc7c6ncn7C6CC(NC(=O)Cc7ccccc7)C6)CC5)CC4)c3C2=O)C(=O)N1 (stereo partly drawn) [Compound 184, N-((1s,3s)-3-(6-(((1-((1-((2-(2,6-dioxopiperidin-3-yl)-1,3-dioxoisoindolin-4-yl)glycyl)piperidin-4-yl)methyl)piperidin-4-yl)methyl)amino)-9H-purin-9-yl)cyclobutyl)-2-phenylacetamide] |
| 0/0/0% | 0/0/0% | 0/0/0% | 100/100/100% | 100/100/100% | 100/100/100% | O=C1CCC(N2C(=O)c3ccc(NCC(=O)N4CCC(CN5CCC(CNc6ncnc7c6ncn7[C@H]6C[C@@H](NC(=O)Cc7ccccc7)C6)CC5)CC4)cc3C2=O)C(=O)N1 (stereo partly drawn) [Compound 185, N-((1s,3s)-3-(6-(((1-((1-((2-(2,6-dioxopiperidin-3-yl)-1,3-dioxoisoindolin-5-yl)glycyl)piperidin-4-yl)methyl)piperidin-4-yl)methyl)amino)-9H-purin-9-yl)cyclobutyl)-2-phenylacetamide] |
| 10% | 0% | 0% | 30% | 10% | 20% | O=C1CCN(c2coc3cc(C(=O)N4CCC(CN5CCN(c6ccc(Nc7ncnc8c7ncn8[C@H]7C[C@@H](NC(=O)Cc8ccccc8)C7)cc6)CC5)CC4)ccc23)C(=O)N1 [Compound 187, N-((1s,3s)-3-(6-((4-(4-((1-(3-(2,4-dioxotetrahydropyrimidin-1(2H)-yl)benzofuran-6-carbonyl)piperidin-4-yl)methyl)piperazin-1-yl)phenyl)amino)-9H-purin-9-yl)cyclobutyl)-2-phenylacetamide] |
| 20% | 20% | 10% | 80% | 70% | 60% | O=C1CC[C@H](N2C(=O)C=C(Nc3cccc(CC(=O)N4CCC(CN5CCN(c6ccc(Nc7ncnc8c7ncn8C7CC(NC(=O)Cc8ccccc8)C7)cc6)CC5)CC4)c3)C2=O)C(=O)N1 (stereo partly drawn) [Compound 188, N-((1s,3s)-3-(6-((4-(4-((1-(2-(3-((1-(2,6-dioxopiperidin-3-yl)-2,5-dioxo-2,5-dihydro-1H-pyrrol-3-yl)amino)phenyl)acetyl)piperidin-4-yl)methyl)piperazin-1-yl)phenyl)amino)-9H-purin-9-yl)cyclobutyl)-2-phenylacetamide] |
| 0/0/0% | 0/0/0% | 0/0/0% | 30% | 20% | 40% | O=C1CC[C@H](N2C(=O)C=C(N3CCC(C(=O)N4CCC(CN5CCN(c6ccc(Nc7ncnc8c7ncn8[C@H]7C[C@@H](NC(=O)Cc8ccccc8)C7)cc6)CC5)CC4)CC3)C2=O)C(=O)N1 [Compound 189, N-((1s,3s)-3-(6-((4-(4-((1-(1-(1-(2,6-dioxopiperidin-3-yl)-2,5-dioxo-2,5-dihydro-1H-pyrrol-3-yl)piperidin-4-carbonyl)piperidin-4-yl)methyl)piperazin-1-yl)phenyl)amino)-9H-purin-9-yl)cyclobutyl)-2-phenylacetamide] |
| 0/0/0% | 0/0/0% | 0/0/0% | 0/0/0% | 0/0/0% | 0/0/0% | O=C1CCN(c2coc3cc(C(=O)N4CCC5(CC4)CC(N4CCN(c6ccc(Nc7ncnc8c7ncn8[C@H]7C[C@@H](NC(=O)Cc8ccccc8)C7)cc6)CC4)C5)ccc23)C(=O)N1 [Compound 191, N-((1s,3s)-3-(6-((4-(4-(7-(3-(2,4-dioxotetrahydropyrimidin-1(2H)-yl)benzofuran-6-carbonyl)-7-azaspiro[3.5]nonan-2-yl)piperazin-1-yl)phenyl)amino)-9H-purin-9-yl)cyclobutyl)-2-phenylacetamide] |
| 20% | 20% | 10% | 70% | 70% | 50% | O=C1CC[C@H](N2C(=O)C=C(Nc3cccc(CC(=O)N4CCC5(CC4)CC(N4CCN(c6ccc(Nc7ncnc8c7ncn8[C@H]7C[C@@H](NC(=O)Cc8ccccc8)C7)cc6)CC4)C5)c3)C2=O)C(=O)N1 [Compound 192, N-((1s,3s)-3-(6-((4-(4-(7-(2-(3-((1-(2,6-dioxopiperidin-3-yl)-2,5-dioxo-2,5-dihydro-1H-pyrrol-3-yl)amino)phenyl)acetyl)-7-azaspiro[3.5]nonan-2-yl)piperazin-1-yl)phenyl)amino)-9H-purin-9-yl)cyclobutyl)-2-phenylacetamide] |
| 0% | 10% | 10% | 20% | 20% | 10% | O=C1CC[C@H](N2C(=O)C=C(N3CCC(C(=O)N4CCC5(CC4)CC(N4CCN(c6ccc(Nc7ncnc8c7ncn8C7CC(NC(=O)Cc8ccccc8)C7)cc6)CC4)C5)CC3)C2=O)C(=O)N1 (stereo partly drawn) [Compound 193, N-((1s,3s)-3-(6-((4-(4-(7-(1-(1-(2,6-dioxopiperidin-3-yl)-2,5-dioxo-2,5-dihydro-1H-pyrrol-3-yl)piperidin-4-carbonyl)-7-azaspiro[3.5]nonan-2-yl)piperazin-1-yl)phenyl)amino)-9H-purin-9-yl)cyclobutyl)-2-phenylacetamide] |
| 70% | 50% | 40% | 50% | 10% | 10% | COc1ccc(C(=O)N2CCC(CC(=O)N3CCN(c4ccc(Nc5ncnc6c5ncn6[C@H]5C[C@@H](NC(=O)Cc6ccccc6)C5)cc4)CC3)CC2)cc1N1CCC(=O)NC1=O [Compound 194, N-((1s,3s)-3-(6-((4-(4-(2-(1-(3-(2,4-dioxotetrahydropyrimidin-1(2H)-yl)-4-methoxybenzoyl)piperidin-4-yl)acetyl)piperazin-1-yl)phenyl)amino)-9H-purin-9-yl)cyclobutyl)-2-phenylacetamide] |
| 20% | 10% | 10% | 80% | 50% | 50% | O=C1CCN(c2coc3cc(C(=O)N4CCC(CC(=O)N5CCN(c6ccc(Nc7ncnc8c7ncn8[C@H]7C[C@@H](NC(=O)Cc8ccccc8)C7)cc6)CC5)CC4)ccc23)C(=O)N1 [Compound 195, N-((1s,3s)-3-(6-((4-(4-(2-(1-(3-(2,4-dioxotetrahydropyrimidin-1(2H)-yl)benzofuran-6-carbonyl)piperidin-4-yl)acetyl)piperazin-1-yl)phenyl)amino)-9H-purin-9-yl)cyclobutyl)-2-phenylacetamide] |
| 30% | 40% | 40% | 80% | 100% | 100% | O=C1CC[C@H](N2C(=O)C=C(Nc3cccc(CC(=O)N4CCC(CC(=O)N5CCN(c6ccc(Nc7ncnc8c7ncn8[C@H]7C[C@@H](NC(=O)Cc8ccccc8)C7)cc6)CC5)CC4)c3)C2=O)C(=O)N1 [Compound 196, N-((1s,3s)-3-(6-((4-(4-(2-(1-(2-(3-((1-(2,6-dioxopiperidin-3-yl)-2,5-dioxo-2,5-dihydro-1H-pyrrol-3-yl)amino)phenyl)acetyl)piperidin-4-yl)acetyl)piperazin-1-yl)phenyl)amino)-9H-purin-9-yl)cyclobutyl)-2-phenylacetamide] |
| 10% | 10% | 0% | 30/30/30% | 30/30/30% | 30/30/30% | O=C1CC[C@H](N2C(=O)C=C(N3CCC(C(=O)N4CCC(CC(=O)N5CCN(c6ccc(Nc7ncnc8c7ncn8[C@H]7C[C@@H](NC(=O)Cc8ccccc8)C7)cc6)CC5)CC4)CC3)C2=O)C(=O)N1 [Compound 197, N-((1s,3s)-3-(6-((4-(4-(2-(1-(1-(1-(2,6-dioxopiperidin-3-yl)-2,5-dioxo-2,5-dihydro-1H-pyrrol-3-yl)piperidin-4-carbonyl)piperidin-4-yl)acetyl)piperazin-1-yl)phenyl)amino)-9H-purin-9-yl)cyclobutyl)-2-phenylacetamide] |
